Publication PMC10783051 (Microbiology Spectrum, 2023)

Tested on: Streptomyces venezuelae ATCC 10712
Assay: In planta co-inoculation on tomato roots, UPLC-MS of rhizosphere extracts
Details: tomato roots on Hoagland agar, 7 days at 22°C, UPLC-MS of agar near the roots, four biological replicates
Protocol: For the in planta studies, tomato seeds (Solanum lycopersicum var. Moneymaker) were sterilized following the protocol described by ([26]). Briefly, tomato seeds were primarily sterilized in 70% ethanol (vol/vol) by gently shaking for 2 min. Further, the ethanol was removed and the seeds were added to 50 mL of the sterilization solution [4.5 mL of bleach containing 9.5% (vol/vol) of active chlorine, 0.01 g of Tween 80, and 45.5 mL of sterile water] and gently shaken for 10 min. Seeds were thereafter washed 10 times with water to eliminate sterilization solution residues. […]
All UPLC-MS analyses were performed using an Agilent 1290 Infinity II coupled with a diode array detector and a mass detector (Jet Stream ESI-Q-TOF 6530) in positive mode with the parameters set up as follows: capillary voltage of 3.5 kV, nebulizer pressure of 35 lb/in^2, drying gas of 8 L/min, drying gas temperature of 300°C, flow rate of sheath gas of 11 L/min, sheath gas temperature of 350°C, fragmentor voltage of 175 V, skimmer voltage of 65 V, and octopole radiofrequency of 750 V. Accurate mass spectra were recorded in the m/z range of 300–1,700. […]

Substance: iturin
- linear forms in rhizosphere extracts upon co-inoculation of Bv with Sv: high proportion of linear
